Active and inactive are the calls of the source. No cut-off for these calls is given here. Peptide text beside a SMILES is read from it.
How the values were obtained:
Macrophage [1] = assay: Immunomodulatory activity in mouse peritoneal macrophage assessed as inhibition of LPS-induced TNF-alpha level at 20 ug/ml measured after 6 hrs by qRT-PCR analysis; format: functional, tissue-based; conditions: dose 20.0 µg/ml
Macrophage [2] = assay: Immunomodulatory activity in mouse peritoneal macrophage assessed as inhibition of LPS-induced IL-6 level at 20 ug/ml measured after 6 hrs by qRT-PCR analysis; format: functional, tissue-based; conditions: dose 20.0 µg/ml
Macrophage [3] = assay: Immunomodulatory activity in mouse peritoneal macrophage assessed as inhibition of LPS-induced IL-1beta level at 20 ug/ml measured after 6 hrs by qRT-PCR analysis; format: functional, tissue-based; conditions: dose 20.0 µg/ml
Macrophage [4] = assay: Immunomodulatory activity in mouse peritoneal macrophage assessed as inhibition of LPS-induced TNF-alpha level at 20 ug/ml measured after 24 hrs by ELISA; format: functional, tissue-based; conditions: dose 20.0 µg/ml
Macrophage [5] = assay: Immunomodulatory activity in mouse peritoneal macrophage assessed as inhibition of LPS-induced IL-6 level at 20 ug/ml measured after 24 hrs by ELISA; format: functional, tissue-based; conditions: dose 20.0 µg/ml
Macrophage [6] = assay: Immunomodulatory activity in mouse peritoneal macrophage assessed as inhibition of LPS-induced IL-1beta level at 20 ug/ml measured after 24 hrs by ELISA; format: functional, tissue-based; conditions: dose 20.0 µg/ml
Macrophage [7] = assay: Immunomodulatory activity in mouse peritoneal macrophage assessed as inhibition of LPS-induced IL-1beta level at 5 to 20 ug/ml measured after 24 hrs by ELISA; format: functional, tissue-based; conditions: dose 5-20 µg/ml
Macrophage [8] = assay: Immunomodulatory activity in mouse peritoneal macrophage assessed as inhibition of LPS-induced IL-6 level at 5 to 20 ug/ml measured after 6 hrs by qRT-PCR analysis; format: functional, tissue-based; conditions: dose 5-20 µg/ml
Macrophage [9] = assay: Immunomodulatory activity in mouse peritoneal macrophage assessed as inhibition of LPS-induced IL-6 level at 5 to 20 ug/ml measured after 24 hrs by ELISA; format: functional, tissue-based; conditions: dose 5-20 µg/ml
Macrophage [10] = assay: Immunomodulatory activity in mouse peritoneal macrophage assessed as inhibition of LPS-induced MCP-1 level at 5 to 20 ug/ml measured after 24 hrs by ELISA; format: functional, tissue-based; conditions: dose 5-20 µg/ml
Macrophage [11] = assay: Immunomodulatory activity in mouse peritoneal macrophage assessed as inhibition of LPS-induced MCP-1 level at 5 to 20 ug/ml measured after 6 hrs by qRT-PCR analysis; format: functional, tissue-based; conditions: dose 5-20 µg/ml
Macrophage [12] = assay: Immunomodulatory activity in mouse peritoneal macrophage assessed as inhibition of LPS-induced IL-1beta level at 5 to 20 ug/ml measured after 6 hrs by qRT-PCR analysis; format: functional, tissue-based; conditions: dose 5-20 µg/ml
Macrophage [13] = assay: Immunomodulatory activity in mouse peritoneal macrophage assessed as inhibition of LPS-induced TNF-alpha level at 5 to 20 ug/ml measured after 6 hrs by qRT-PCR analysis; format: functional, tissue-based; conditions: dose 5-20 µg/ml
Macrophage [14] = assay: Immunomodulatory activity in mouse peritoneal macrophage assessed as inhibition of LPS-induced TNF-alpha level at 5 to 20 ug/ml measured after 24 hrs by ELISA; format: functional, tissue-based; conditions: dose 5-20 µg/ml
Staphylococcus aureus = assay: In vivo antibacterial activity against methicillin sensitive Staphylococcus aureus ATCC 25923 infected in kunming mouse assessed as increase in survival rate at 10 mg/kg, ip administered 4 hrs after infection and measured up to 7 days after infection relative to control; format: functional; conditions: time day <=7
[15] = Immunomodulatory activity in mouse peritoneal macrophage assessed as inhibition of LPS-induced IL-6 level measured after 24 hrs by ELISA; format: functional; set-up: scale not given: the % may be the effect or the level left; conditions: dose 5-20 µg/ml, at 5 to 20 µg/mL

Compound	inhibition (Macrophage [1])	inhibition (Macrophage [2])	inhibition (Macrophage [3])	inhibition (Macrophage [4])	inhibition (Macrophage [5])	inhibition (Macrophage [6])	inhibition (Macrophage [7])	inhibition (Macrophage [8])	inhibition (Macrophage [9])	inhibition (Macrophage [10])	inhibition (Macrophage [11])	inhibition (Macrophage [12])	inhibition (Macrophage [13])	inhibition (Macrophage [14])	Activity (Staphylococcus aureus)	Activity [15]
CSCC[C@H](NC(=O)[C@H](C)NC(=O)[C@H](CCCNC(=N)N)NC(=O)[C@H](CC(C)C)NC(=O)[C@H](CCCNC(=N)N)NC(=O)[C@H](CCCNC(=N)N)NC(=O)[C@H](CCC(N)=O)NC(=O)[C@@H]1CCCN1C(=O)[C@H](C)NC(=O)[C@H](C)NC(=O)[C@@H](N)CCCNC(=N)N)C(=O)N[C@@H](C)C(=O)N[C@@H](CCCNC(=N)N)C(=O)N[C@@H](CC(C)C)C(=O)N[C@@H](CCCCN)C(=O)N[C@@H](CCCCN)C(=O)N[C@@H](Cc1ccccc1)C(=O)N[C@@H](C)C(=O)N[C@@H](CCC(=O)O)C(=O)N[C@@H](C)C(=O)NCC(=O)NCC(=O)N[C@@H](C)C(=O)N[C@@H](CC(=O)O)C(=O)N1CCC[C@H]1C(=O)N[C@@H](CC(=O)O)C(=O)N[C@@H](CO)C(=O)NCC(=O)NCC(=O)N[C@@H](CC(C)C)C(=O)N[C@@H](CCCNC(=N)N)C(=O)N[C@@H](C)C(=O)N[C@@H](CCCNC(=N)N)C(=O)N[C@@H](Cc1ccccc1)C(=O)N1CCC[C@H]1C(=O)N[C@@H](CCC(=O)O)C(=O)N[C@@H](CCCNC(=N)N)C(=O)O (H-RAAPQRRLRAMARLKKFAEAGGADPDSGGLRARFPER-OH)	Active	Active	Active	Active	Active	Active	–	–	–	–	–	–	–	–	–	–
CC[C@H](C)[C@H](NC(=O)[C@H](CO)NC(=O)[C@H](CO)NC(=O)CNC(=O)CNC(=O)CNC(=O)[C@H](C)NC(=O)[C@H](Cc1ccccc1)NC(=O)[C@H](Cc1ccccc1)NC(=O)[C@H](CCCCN)NC(=O)[C@H](CCCCN)NC(=O)[C@H](CC(C)C)NC(=O)[C@H](CCCNC(=N)N)NC(=O)[C@H](CCCNC(=N)N)NC(=O)[C@H](CCSC)NC(=O)[C@H](Cc1ccccc1)NC(=O)[C@H](CCCCN)NC(=O)[C@H](CCCNC(=N)N)NC(=O)[C@H](Cc1ccccc1)NC(=O)CNC(=O)[C@H](CC(N)=O)NC(=O)[C@H](CCCNC(=N)N)NC(=O)[C@@H](N)CCCCN)C(=O)N[C@@H](C)C(=O)N[C@@H](Cc1cnc[nH]1)C(=O)N[C@H](C(=O)N[C@@H](CCCCN)C(=O)N[C@@H](CC(C)C)C(=O)N[C@@H](Cc1cnc[nH]1)C(=O)O)[C@@H](C)CC (H-KRNGFRKFMRRLKKFFAGGGSSIAHIKLH-OH)	–	–	–	–	–	–	Active	Active	Active	Active	Active	Active	Active	Active	–	–
CN[C@H](CC(C)C)C(=O)N[C@H]1C(=O)N[C@@H](CC(N)=O)C(=O)N[C@H]2C(=O)N[C@H]3C(=O)N[C@H](C(=O)N[C@H](C(=O)O)c4cc(O)cc(O)c4-c4cc3ccc4O)[C@H](O)c3ccc(c(Cl)c3)Oc3cc2cc(c3O[C@@H]2O[C@H](CO)[C@@H](O)[C@H](O)[C@H]2O[C@H]2C[C@](C)(N)[C@H](O)[C@H](C)O2)Oc2ccc(cc2Cl)[C@H]1O [VANCOMYCIN]	–	–	–	–	–	–	–	–	–	–	–	–	–	–	35%	–
CC[C@H](C)[C@H](NC(=O)[C@H](CCCNC(=N)N)NC(=O)[C@H](Cc1c[nH]c2ccccc12)NC(=O)CNC(=O)[C@H](Cc1ccc(O)cc1)NC(=O)[C@H](CCCNC(=N)N)NC(=O)[C@H](CCCNC(=N)N)NC(=O)[C@H](C)NC(=O)[C@H](Cc1ccccc1)NC(=O)[C@H](CCCNC(=N)N)NC(=O)CNC(=O)[C@H](C)NC(=O)CNC(=O)[C@H](CCCNC(=N)N)NC(=O)[C@@H](NC(=O)[C@H](Cc1ccccc1)NC(=O)[C@H](CCCNC(=N)N)NC(=O)[C@H](CCCNC(=N)N)NC(=O)[C@H](Cc1c[nH]c2ccccc12)NC(=O)[C@H](CCCNC(=N)N)NC(=O)[C@H](CO)NC(=O)[C@H](CCCNC(=N)N)NC(=O)[C@@H](N)[C@@H](C)O)[C@@H](C)CC)C(=O)N[C@@H](C)C(=O)N[C@@H](CC(C)C)C(=O)NCC(=O)N[C@@H](CC(C)C)C(=O)N[C@H](C(=O)NCC(=O)O)C(C)C (H-TRSRWRRFIRGAGRFARRYGWRIALGLVG-OH)	–	–	–	–	–	–	Active	Active	Active	Active	Active	Active	Active	Active	–	65.59%
